The text below walks through data of ChEMBL document CHEMBL1955764, “Synthesis and biological activity of 23-ethylidene-26-hydroxy-22-oxocholestane derivatives from spirostanic sapogenins” (Eur J Med Chem, 2012).

The subject of experiment [1] is CCRF-CEM. The experiment in a line: Cytotoxicity against human CEM cells after 72 hrs by calcein AM assay. The class given is functional, cell-based.
In another experiment the test system is MCF7. The experiment in a line: Cytotoxicity against human MCF7 cells after 72 hrs by calcein AM assay. The class given is functional, cell-based. The settings on record: MCF7, 72 h.
A further experiment has as its system HeLa. The experiment in a line: Cytotoxicity against human HeLa cells after 72 hrs by calcein AM assay. The experiment is classed as functional, cell-based.
The next experiment has as its system BJ. The experiment in a line: Cytotoxicity against human BJ cells after 72 hrs by calcein AM assay. The class given is cell-based.
The subject of experiment [2] is CCRF-CEM. The experiment in a line: Cell cycle arrest in human CEM cells assessed as accumulation at G1 phase after 24 hrs using propidium iodide staining by flow cytometric analysis. The experiment is classed as functional, cell-based.
Experiment [3] has as its system CCRF-CEM. The experiment in a line: Cell cycle arrest in human CEM cells assessed as accumulation at G2/M phase at 5 to 50 uM after 24 hrs using propidium iodide staining by flow cytometric analysis. The class given is functional, cell-based. Background: In flow cytometry, cells or beads pass a laser one at a time.
Experiment [4] deals with CCRF-CEM. The experiment in a line: Cell cycle arrest in human CEM cells assessed as accumulation at sub-G1 phase at 5 to 50 uM after 24 hrs using propidium iodide staining by flow cytometric analysis. The class given is functional, cell-based.
In experiment [5] the test system is CCRF-CEM. The experiment in a line: Cell cycle arrest in human CEM cells assessed as accumulation at G0/G1 phase at 5 to 50 uM after 24 hrs using propidium iodide staining by flow cytometric analysis. The class given is functional, cell-based.
In experiment [6] the test system is CCRF-CEM. The experiment in a line: Induction of apoptosis in human CEM cells assessed as increase of caspase 3/7 activity using Ac-DEVD-AMC as substrate at 50 uM after 24 hrs relative to control. The class given is functional.
The test system of experiment [7] is CCRF-CEM. The experiment in a line: Cell cycle arrest in human CEM cells assessed as increase of cleaved of PARP level at 50 uM after 24 hrs by Western blotting analysis. The experiment is classed as functional, cell-based.
Experiment [8] has as its system CCRF-CEM. The experiment in a line: Cell cycle arrest in human CEM cells assessed as decrease of procaspase 3 level at 50 uM after 24 hrs by Western blotting analysis. The class given is functional, cell-based. On the technique in general: A western blot detects proteins with antibodies after separation by electrophoresis.
Experiment [9] has as its system CCRF-CEM. The experiment in a line: Cell cycle arrest in human CEM cells assessed as increase of cleaved of PARP level after 24 hrs by Western blotting analysis. The class given is functional, cell-based.
The test system of experiment [10] is CCRF-CEM. The experiment in a line: Cell cycle arrest in human CEM cells assessed as decrease of procaspase 3 level after 24 hrs by Western blotting analysis. The class given is functional, cell-based.

Active and inactive are the calls of the source. The rule behind the calls is not given here.

As a reminder, the IC50 is the concentration that gives 50% inhibition.

For the compound `C/C=C(\C[C@@H](C)CO)C(=O)[C@@H](C)[C@H]1[C@@H](OC(C)=O)C[C@H]2[C@@H]3CC=C4C[C@@H](OC(C)=O)CC[C@]4(C)[C@H]3CC(=O)[C@]12C`, the IC50 with CCRF-CEM [1] was 19 µM; in the experiment on MCF7, more than 50 µM; in the experiment on HeLa, more than 50 µM; with BJ, more than 50 µM.
For `CC(=O)O[C@H]1CC[C@@]2(C)C(=CC[C@H]3[C@@H]4C[C@H](OC(C)=O)[C@H]([C@H](C)C(=O)C5=C(C)OC[C@H](C)C5)[C@@]4(C)CC[C@@H]32)C1`, the IC50 is 40.9 µM in the experiment on CCRF-CEM [1], more than 50 µM with MCF7, more than 50 µM with HeLa and more than 50 µM in the experiment with BJ.
On to `CC(=O)O[C@H]1CC[C@@]2(C)C(=CC[C@H]3[C@@H]4C[C@H](OC(C)=O)[C@H]([C@H](C)C(=O)C5=C(C)OC[C@H](C)C5)[C@@]4(C)[C@H](O)C[C@@H]32)C1`, for which the IC50 is 13.9 µM in the experiment with CCRF-CEM [1], more than 50 µM in the experiment with MCF7, more than 50 µM in the experiment with HeLa and more than 50 µM in the experiment with BJ.
For the compound `CC(C)CCC[C@@H](C)[C@H]1CC[C@H]2[C@@H]3CC=C4C[C@@H](O)CC[C@]4(C)[C@H]3CC[C@]12C` [CHOLESTEROL], the IC50 with CCRF-CEM [1], with MCF7, in the experiment with HeLa and in the experiment with BJ was more than 50 µM each time.
In the case of `CC(=O)O[C@H]1CC[C@@]2(C)[C@@H](CC[C@@H]3[C@@H]2CC[C@]2(C)[C@@H]([C@H](C)C(=O)C4=C(C)OC[C@H](C)C4)[C@@H](OC(C)=O)C[C@@H]32)C1`, the IC50 was 20.7 µM in the experiment with CCRF-CEM [1], 35.7 µM in the experiment on MCF7, more than 50 µM in the experiment with HeLa and more than 50 µM in the experiment on BJ.
Regarding `C/C=C(\C[C@@H](C)CO)C(=O)[C@@H](C)[C@H]1[C@@H](OC(C)=O)C[C@H]2[C@@H]3CC[C@H]4C[C@@H](OC(C)=O)CC[C@]4(C)[C@H]3CC[C@]12C`, the IC50 in the experiment with CCRF-CEM [1] was 5.9 µM; with MCF7, 14.7 µM; with HeLa, more than 50 µM; in the experiment on BJ it was more than 50 µM. For the same compound, the Activity entry in the experiment with CCRF-CEM [2], with CCRF-CEM [9] and with CCRF-CEM [10] was “Dose-dependent effect” each time. Moreover, the outcome in the experiment with CCRF-CEM [3], in the experiment with CCRF-CEM [4], in the experiment on CCRF-CEM [5], in the experiment with CCRF-CEM [7] and in the experiment on CCRF-CEM [8] was Active. Besides, the “fold change (FC)” value in the experiment on CCRF-CEM [6] is on record as 4.3.
Consider `CC(=O)O[C@H]1CC[C@@]2(C)C(=CC[C@H]3[C@@H]4C[C@H](OC(C)=O)[C@H]([C@H](C)C(=O)C5=C(C)OC[C@H](C)C5)[C@@]4(C)C(=O)C[C@@H]32)C1`, for which the half-inhibitory concentration (IC50) with CCRF-CEM [1] was 10.5 µM; in the experiment on MCF7, 47.1 µM; with HeLa, more than 50 µM; in the experiment with BJ, more than 50 µM.
On to `C/C=C(\C[C@@H](C)CO)C(=O)[C@@H](C)[C@H]1[C@@H](OC(C)=O)C[C@H]2[C@@H]3CC=C4C[C@@H](OC(C)=O)CC[C@]4(C)[C@H]3CC[C@]12C`, for which the IC50 in the experiment on CCRF-CEM [1] was 11.1 µM; in the experiment on MCF7, more than 50 µM; with HeLa, more than 50 µM; in the experiment on BJ, more than 50 µM. Besides, the Activity result in the experiment on CCRF-CEM [2], in the experiment with CCRF-CEM [9] and in the experiment on CCRF-CEM [10] was “Dose-dependent effect” in each case. Further, the outcome in the experiment with CCRF-CEM [3], in the experiment with CCRF-CEM [4], in the experiment with CCRF-CEM [5], with CCRF-CEM [7] and with CCRF-CEM [8] was Active. Besides, in the experiment with CCRF-CEM [6], the “fold change (FC)” value is reported as 2.4.
